The experiment is described as follows: Inhibition of HIV replication: A recombinant NL-RLuc proviral clone was constructed in which a section of the nef gene from NL4-3 was replaced with the Renilla Luciferase gene. This virus is fully infectious and can undergo multiple cycles of replication in cell culture. In addition, the luciferous reporter provides a simple and easy method for quantitating the extent of virus growth and consequently, the antiviral activity of test compounds. The plasmid pNLRLuc contains the proviral NL-Rluc DNA cloned into pUC18 at the PvuII site. The NL-RLuc virus was prepared by transfection of 293T cells with the plasmid pNLRLuc. Transfections were performed using the LipofectAMINE PLUS kit from Invitrogen (Carlsbad, Calif.) according to the manufacturer and the virus generated was titered in MT-2 cells. For susceptibility analyses, the titrated virus was used to infect MT-2 cells in the presence of compound, and after 5 days of incubation, cells were processed and quantitated for virus growth by the amount of expressed luciferase. Assay media was RPMI 1640 supplemented with 10% heat inactivated fetal bovine serum (FBS), 100 units/ml penicillin G/100 units/ml streptomycin, 10 mM HEPES buffer pH 7.55 and 2 mM L-glutamine. The results from at least 2 experiments were used to calculate the EC50 values. Luciferase was quantitated using the Dual Luciferase kit from Promega (Madison, Wis.). Susceptibility of viruses to compounds was determined by incubation in the presence of serial dilutions of the compound. The 50% effective concentration (EC50) was calculated by using the exponential form of the median effect equation where (Fa)=1/[1+(ED50/drug conc.)m] (Johnson V A, Byington R T. Infectivity Assay. In Techniques in HIV Research. ed. Aldovini A, Walker B D. 71-76. New York: Stockton Press.1990). Format: cell-based.

Turning to `Cc1ccc(CN2CCc3cc(-c4c(C)nc(C)c([C@H](OC(C)(C)C)C(=O)O)c4N4CCC(C)(C)CC4)ccc3C2)cc1C`, the concentration giving a half-maximal response (EC50) (commonly the concentration at which the effect is half-maximal) was < 100 nM. In addition, the EC50 (HEK-293T) was < 100 nM.

As to `COc1cc(F)cc(F)c1CN1CCc2cc(-c3c(C)nc(C)c([C@H](OC(C)(C)C)C(=O)O)c3N3CCC(C)(C)CC3)ccc2C1`, the EC50 was < 100 nM. Besides, the EC50 (HEK-293T) was < 100 nM.

On to `COc1cc(F)c(CN2CCc3cc(-c4c(C)nc(C)c([C@H](OC(C)(C)C)C(=O)O)c4N4CCC(C)(C)CC4)ccc3C2)c(F)c1`, for which the EC50 was < 100 nM. Further, the EC50 (HEK-293T) was < 100 nM.
